Series [1] is described as follows: Fraction unbound in mouse plasma at 0.5 uM by equilibrium dialysis method. In kind it is ADME, cell-free. (In general: Equilibrium dialysis compares concentrations on both sides of a semipermeable membrane.)
Another series is filed under the species Homo sapiens. Kind of series: Selectivity ratio of Ki for human dopamine D2 receptor to Ki for human dopamine D4 receptor.
Series [2] has as its target T1, Alpha-1B adrenergic receptor (Homo sapiens, UniProt P35368).
T1 sequence (P35368 whole entry): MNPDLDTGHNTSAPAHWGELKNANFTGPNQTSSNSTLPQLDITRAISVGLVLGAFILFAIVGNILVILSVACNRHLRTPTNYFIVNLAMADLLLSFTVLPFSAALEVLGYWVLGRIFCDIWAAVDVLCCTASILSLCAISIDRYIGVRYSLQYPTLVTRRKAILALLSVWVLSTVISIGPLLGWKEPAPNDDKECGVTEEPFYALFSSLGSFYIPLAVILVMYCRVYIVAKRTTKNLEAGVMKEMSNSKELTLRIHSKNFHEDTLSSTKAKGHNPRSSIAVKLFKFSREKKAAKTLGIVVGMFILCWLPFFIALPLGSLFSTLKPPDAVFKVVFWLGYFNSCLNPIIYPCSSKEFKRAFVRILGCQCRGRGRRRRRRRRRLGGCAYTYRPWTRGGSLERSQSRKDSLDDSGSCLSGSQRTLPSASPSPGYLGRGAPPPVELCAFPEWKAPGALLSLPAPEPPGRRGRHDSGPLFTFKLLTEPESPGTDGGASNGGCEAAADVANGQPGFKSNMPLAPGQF
Kind of series: Displacement of [3H]prazosin from human recombinant alpha-1B adrenergic receptor expressed in CHO cell membranes after 30 mins by liquid scintillation counting method. Background: Displacement assays read how much labelled ligand stays bound in the presence of the test substance.

For series [3], the target named is Sodium-dependent dopamine transporter (Rattus norvegicus, UniProt P23977). Kind of series: Displacement of [3H]WIN 35,428 from DAT in Sprague-Dawley rat striatum after 120 mins by scintillation counting method.
Sequence of Sodium-dependent dopamine transporter (P23977 whole entry): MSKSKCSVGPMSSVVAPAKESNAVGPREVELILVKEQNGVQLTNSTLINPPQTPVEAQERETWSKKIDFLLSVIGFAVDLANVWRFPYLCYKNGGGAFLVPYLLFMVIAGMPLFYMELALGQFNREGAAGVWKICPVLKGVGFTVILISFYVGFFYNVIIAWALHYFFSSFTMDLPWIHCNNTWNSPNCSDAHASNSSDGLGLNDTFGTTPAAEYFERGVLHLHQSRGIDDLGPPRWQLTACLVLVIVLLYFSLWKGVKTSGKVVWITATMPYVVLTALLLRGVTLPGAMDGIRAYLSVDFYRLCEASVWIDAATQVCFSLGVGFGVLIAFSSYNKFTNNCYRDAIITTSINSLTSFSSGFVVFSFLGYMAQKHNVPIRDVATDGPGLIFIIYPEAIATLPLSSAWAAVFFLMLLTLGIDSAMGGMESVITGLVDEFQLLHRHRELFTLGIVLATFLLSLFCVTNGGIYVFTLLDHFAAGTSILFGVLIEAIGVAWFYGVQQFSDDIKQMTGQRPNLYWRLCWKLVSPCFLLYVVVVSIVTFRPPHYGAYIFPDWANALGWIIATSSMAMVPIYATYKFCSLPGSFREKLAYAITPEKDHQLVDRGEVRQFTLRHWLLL
For series [4], the target named is T2, D(4) dopamine receptor (Homo sapiens, UniProt P21917).
T2 sequence (P21917 whole entry): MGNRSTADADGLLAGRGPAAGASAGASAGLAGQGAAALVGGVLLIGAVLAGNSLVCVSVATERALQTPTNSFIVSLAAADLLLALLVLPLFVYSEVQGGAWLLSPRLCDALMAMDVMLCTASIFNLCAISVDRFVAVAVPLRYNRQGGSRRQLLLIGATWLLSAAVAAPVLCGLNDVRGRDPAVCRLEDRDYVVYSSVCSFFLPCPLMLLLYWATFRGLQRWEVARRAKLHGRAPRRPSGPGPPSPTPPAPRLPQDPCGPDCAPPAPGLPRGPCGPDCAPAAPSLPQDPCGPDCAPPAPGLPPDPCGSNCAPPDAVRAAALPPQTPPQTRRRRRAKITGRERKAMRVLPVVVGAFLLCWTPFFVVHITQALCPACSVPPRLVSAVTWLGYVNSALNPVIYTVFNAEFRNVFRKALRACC
Kind of series: Antagonist activity at human SP/Myc epitope-tagged dopamine D4 receptor expressed in HEK293T cells assessed as inhibition of dopamine-induced RLuc8-fused Galphai1 activation preincubated for 15 mins followed by dopamine induction measured after 2 mins by BRET assay. In kind it is cell-based, HEK-293T. (In BRET a luciferase serves as donor, and the signal depends on an acceptor being close.)

The target of series [5] is T2, D(4) dopamine receptor. Description: Antagonist activity at human SP/Myc epitope-tagged dopamine D4 receptor expressed in HEK293T cells assessed as inhibition of dopamine-induced mVenus-fused beta-arrestin2 recruitment preincubated for 15 mins followed by dopamine induction measured after 2 mins by BRET assay. In kind it is cell-based, HEK-293T.
Series [6] deals with T3, Muscarinic acetylcholine receptor M1 (Homo sapiens, UniProt P11229).
T3 sequence (P11229 whole entry): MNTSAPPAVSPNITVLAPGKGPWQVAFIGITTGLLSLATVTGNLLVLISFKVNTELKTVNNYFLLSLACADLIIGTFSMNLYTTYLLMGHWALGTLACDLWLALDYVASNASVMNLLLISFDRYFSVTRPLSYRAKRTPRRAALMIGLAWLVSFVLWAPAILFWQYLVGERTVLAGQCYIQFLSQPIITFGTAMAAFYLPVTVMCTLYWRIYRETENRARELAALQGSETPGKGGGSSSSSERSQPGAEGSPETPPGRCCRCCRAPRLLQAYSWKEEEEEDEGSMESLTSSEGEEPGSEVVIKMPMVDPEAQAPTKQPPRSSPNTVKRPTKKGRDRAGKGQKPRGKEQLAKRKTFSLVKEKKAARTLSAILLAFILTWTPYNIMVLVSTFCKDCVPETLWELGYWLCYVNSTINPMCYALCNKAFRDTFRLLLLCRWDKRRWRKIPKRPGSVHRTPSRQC
Kind of series: Agonist activity at human SP/Myc epitope-tagged muscarinic M1 receptor expressed in HEK293T cells assessed as RLuc8-fused Galphaq activation after 2 mins by BRET assay. The format is cell-based, HEK-293T.

Series [7] has as its target T4, Muscarinic acetylcholine receptor M1 (Homo sapiens) (UniProt P11229).
T4 sequence (whole entry): T3 sequence (P11229 whole entry)
Kind of series: (§1) Antagonist activity at human SP/Myc epitope-tagged muscarinic M1 receptor expressed in HEK293T cells assessed as inhibition of carbachol-induced mVenus-fused beta-arrestin2 recruitment preincubated for 15 mins followed by carbachol induction measured after 2 mins by BRET assay. In kind it is cell-based. The settings on record: HEK-293T.

The target of series [8] is T3, Muscarinic acetylcholine receptor M1. The description is as §1. The format is cell-based, HEK-293T.
In series [9] the target is T5, Muscarinic acetylcholine receptor M4 (Homo sapiens) (UniProt P08173).
T5 sequence (whole entry): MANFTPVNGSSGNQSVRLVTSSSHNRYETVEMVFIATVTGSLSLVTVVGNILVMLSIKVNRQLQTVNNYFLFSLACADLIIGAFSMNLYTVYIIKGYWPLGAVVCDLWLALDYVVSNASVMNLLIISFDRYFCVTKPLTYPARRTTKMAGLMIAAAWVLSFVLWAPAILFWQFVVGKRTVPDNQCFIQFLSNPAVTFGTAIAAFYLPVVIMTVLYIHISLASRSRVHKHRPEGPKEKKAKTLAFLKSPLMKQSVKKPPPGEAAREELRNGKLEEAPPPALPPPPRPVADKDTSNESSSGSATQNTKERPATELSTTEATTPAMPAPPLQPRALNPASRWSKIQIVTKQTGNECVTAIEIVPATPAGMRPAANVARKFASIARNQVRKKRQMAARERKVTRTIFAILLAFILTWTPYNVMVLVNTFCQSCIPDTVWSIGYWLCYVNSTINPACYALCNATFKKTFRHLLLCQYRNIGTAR
Description: (§2) Antagonist activity at human SP/Myc epitope-tagged muscarinic M4 receptor expressed in HEK293T cells assessed as inhibition of carbachol-induced mVenus-fused beta-arrestin2 recruitment preincubated for 15 mins followed by carbachol induction measured after 2 mins by BRET assay. In kind it is cell-based. As to conditions: HEK-293T.

Series [10] concerns the target T6, Muscarinic acetylcholine receptor M4 (Homo sapiens, UniProt P08173).
T6 sequence (P08173 whole entry): T5 sequence (whole entry)
Described as §2. The format is cell-based, HEK-293T.

Series [11] is described as follows: Intrinsic clearance in mouse liver microsomes assessed per mg of protein at 0.5 uM preincubated for 30 mins followed by NADPH addition measured after 30 mins by HPLC-MS/MS method. In kind it is ADME, microsome. The settings on record: read-out: CLH.

The fraction unbound is free concentration divided by total concentration. Read a high fraction unbound as weak binding. The Ki is a dissociation constant, usually derived from enzyme kinetics or from competition with a known ligand. By IC50 is commonly meant the midpoint of a concentration-inhibition curve. As a reminder, the EC50 is the concentration at which the effect is half-maximal.

Molecules are shown by their SMILES.

Turning to `O=C1CCc2ccccc2N1CCCN1CCC(Cc2ccccc2)CC1`, in series [1], the fraction unbound at 0.5 µM was 0.1. Besides, in the series filed under Homo sapiens, the Ratio Ki was 724. In addition, the results for the Ki in series [2] and in [3] were 0.224 µM and 0.447 µM, respectively. For the same compound, the IC50 was 0.17 µM on D(4) dopamine receptor [4], 0.575 µM at D(4) dopamine receptor [5], 1.2 µM in [8] and 1.23 µM in series [10]. Also, in series [6], the EC50 was 0.186 µM. The figures for the Imax in series [7] and in series [9] were 71% and 72%, respectively. The microsomal CLint at 0.5 µM in series [11] is 396 µL/min/mg.
`O=C1CCc2ccccc2N1CCCN1CCN(c2ccccc2)CC1` returned a fraction unbound at 0.5 µM in [1] of 0.097. For the same compound, the Ratio Ki in the series listed under Homo sapiens amounted to 380. The Ki in series [2] is 0.0741 µM; in [3] it was 8.71 µM. The IC50 was 0.00977 µM on D(4) dopamine receptor [4], 0.000724 µM at D(4) dopamine receptor [5], 0.832 µM in [8] and 12 µM in [10]. The EC50 in [6] is 0.646 µM. For the same compound, the Imax in series [7] was 53%; in [9] it was 74%. Moreover, the microsomal CLint at 0.5 µM in [11] came to 159 µL/min/mg.

Values taken from ChEMBL document CHEMBL4043296 (J Med Chem, 2018).
